In ChEMBL document CHEMBL5506049, “Discovery of Novel Small-Molecule-Based Potential PD-L1/EGFR Dual Inhibitors with High Druggability for Glioblastoma Immunotherapy” (J Med Chem, 2024):

What was measured:
[1] = cells; details: Homo sapiens, U87MG Human EGFR vIII, 72 h
Description: Antiproliferative activity against human U87vIII cells expressing EGFRvIII incubated for 72 hrs by MTT assay

[2] = test system: U-251; test: cells; details: Homo sapiens, U-251, 72 h
Description: Antiproliferative activity against human U-251 cells incubated for 72 hrs by MTT assay

[3] = test system: U-87 MG; test: cells; details: Homo sapiens, 72 h
Description: Antiproliferative activity against human U-87 MG cells incubated for 72 hrs by MTT assay

[4] = cells; details: GL261, 72 h
Description: Antiproliferative activity against human GL261 cells incubated for 72 hrs by MTT assay

[5] = test system: Glioblastoma cell line; test: Antitumor immunity against glioblastoma bearing C57BL/6 mouse model assessed as tumor infiltrating lymphocytes by measuring increase in CD3+CD8+T cells at 100 mg/kg, IG (reference value: 3.44%); assay type: functional
[6] = In vivo antitumor activity against […] GL261 cells xenografted in C57BL/6 mouse assessed as decrease in tumor weight at 100 mg/kg, IG treated for 21 days relative to control; assay type: functional; design: scale not given: the % may be the effect or the level left; details: time 21 day
[7] = test system: Glioblastoma cell line; test: Antitumor immunity against glioblastoma bearing C57BL/6 mouse model assessed as tumor infiltrating lymphocytes by measuring increase in CD3+CD4+T cells at 100 mg/kg, IG (reference value: 0.91%); assay type: functional
[8] = biological target: Programmed cell death protein 1/Programmed cell death 1 ligand 1 (Homo sapiens, UniProt Q9NZQ7); test: Inhibition of PD-1/PD-L1 (unknown origin) interaction assessed as inhibition rate incubated for 1 hr by HTRF assay relative to control; assay type: protein-complex assay
[9] = In vivo antitumor activity against […] GL261 cells xenografted in C57BL/6 mouse assessed as decrease in tumor volume at 100 mg/kg, IG treated for 21 days relative to control; assay type: functional; design: scale not given: the % may be the effect or the level left; details: time 21 day
[10] = In vivo antitumor activity against […] GL261 cells xenografted in C57BL/6 mouse assessed as decrease in EGFR phosphorylation in tumor tissue at 100 mg/kg, IG treated for 21 days relative to control; assay type: functional; design: scale not given: the % may be the effect or the level left; details: time 21 day
[11] = In vivo antitumor activity against […] GL261 cells xenografted in C57BL/6 mouse assessed as decrease in PD-L1 expression in tumor tissue at 100 mg/kg, IG treated for 21 days relative to control; assay type: functional; design: scale not given: the % may be the effect or the level left; details: time 21 day

Programmed cell death protein 1/Programmed cell death 1 ligand 1, sequence (Q15116 whole entry): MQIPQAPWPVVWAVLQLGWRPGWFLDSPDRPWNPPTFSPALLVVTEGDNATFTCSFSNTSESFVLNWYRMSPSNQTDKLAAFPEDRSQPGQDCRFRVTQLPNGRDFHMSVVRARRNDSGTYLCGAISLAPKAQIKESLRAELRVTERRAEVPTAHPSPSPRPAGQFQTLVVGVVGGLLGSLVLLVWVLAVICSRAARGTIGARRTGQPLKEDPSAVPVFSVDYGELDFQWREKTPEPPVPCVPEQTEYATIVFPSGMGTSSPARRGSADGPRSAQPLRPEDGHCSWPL
Programmed cell death protein 1/Programmed cell death 1 ligand 1, sequence (Q9NZQ7 whole entry): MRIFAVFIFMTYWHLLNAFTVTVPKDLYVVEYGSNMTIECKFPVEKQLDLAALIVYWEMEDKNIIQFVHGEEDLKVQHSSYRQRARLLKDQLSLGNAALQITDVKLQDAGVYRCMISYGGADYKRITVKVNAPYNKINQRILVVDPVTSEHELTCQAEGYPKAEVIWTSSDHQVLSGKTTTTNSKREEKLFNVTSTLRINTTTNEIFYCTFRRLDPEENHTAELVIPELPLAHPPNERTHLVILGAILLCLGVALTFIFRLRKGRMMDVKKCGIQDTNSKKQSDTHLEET

Compound | IC50 [1] [nM] | IC50 [2] [nM] | IC50 [3] [µM] | IC50 [4] [µM] | Activity [5] [%] | Activity [6] [%] | Activity [7] [%] | IC50 [8] [nM] | Activity [9] [%] | Activity [10] [%] | Activity [11] [%]
COc1cc2ncnc(Nc3ccc(F)c(Cl)c3)c2cc1OCCNCc1ccc(-c2cccc(-c3ccccc3)c2C)nc1OC | 1140 | 2640 | 5.76 | 6.86 |  |  |  |  |  |  | 
Cc1c(COc2cc(OCc3cccc(C#N)c3)c(CNC(C)(C)C(=O)O)cc2Cl)cccc1-c1ccccc1 | > 20000 | > 20000 | > 20 | > 20 | 19.7 | 77.2 | 24.7 | 56.2 | 71.1 |  | 
COc1cc2ncnc(Nc3ccc(F)c(Cl)c3)c2cc1OCCCCNCc1ccc(-c2cccc(-c3ccccc3)c2C)nc1OC | 2610 | 2850 | 1.03 | 2.72 |  |  |  |  |  |  | 
COc1cc2ncnc(Nc3ccc(F)c(Cl)c3)c2cc1OCCCN1CCOCC1 [GEFITINIB] |  |  |  |  |  | 77.2 |  |  | 71.2 | ~30 | ~15
COc1cc2ncnc(Nc3ccc(F)c(Cl)c3)c2cc1OC(=O)N1CCN(Cc2c(OC)cc(OCc3cccc(-c4ccccc4)c3C)cc2OC)CC1 | > 20000 | > 20000 | > 20 | > 20 |  |  |  |  |  |  | 
COc1cc2ncnc(Nc3ccc(F)c(Cl)c3)c2cc1OCCCCNC(=O)C1CCCCN1Cc1ccc(-c2cccc(-c3ccccc3)c2C)nc1OC (configuration not stated) | > 20000 | > 20000 | > 20 | > 20 |  |  |  |  |  |  | 
COc1cc2ncnc(Nc3ccc(F)c(Cl)c3)c2cc1OCCCCCNC(=O)CN(C)Cc1c(OC)cc(OCc2cccc(-c3ccccc3)c2C)cc1OC | 3120 | > 20000 | 5.16 | > 20 |  |  |  |  |  |  | 
COc1cc2ncnc(Nc3ccc(F)c(Cl)c3)c2cc1OCCCCCCCCNCc1ccc(-c2cccc(-c3ccccc3)c2C)nc1OC | 2010 | 3530 | 1.15 | 3.3 |  |  |  |  |  |  | 
COc1nc(OCc2cccc(-c3ccccc3)c2C)ccc1CNCCNC(C)=O | 8030 | 2980 | 3.72 | 5.72 |  |  |  |  |  |  | 
COc1cc2ncnc(Nc3ccc(F)c(Cl)c3)c2cc1OCCCCCCNCc1ccc(-c2cccc(-c3ccccc3)c2C)nc1OC | 730 | 1870 | 1.08 | 3.25 |  |  |  |  |  |  | 
COc1cc2ncnc(Nc3ccc(F)c(Cl)c3)c2cc1OCCCCCNCc1ccc(-c2cccc(-c3ccccc3)c2C)nc1OC | 530 | 1350 | 3.38 | 2.16 |  |  |  |  |  |  | 
COc1cc2ncnc(Nc3ccc(F)c(Cl)c3)c2cc1OCCCCCCNC(=O)C1CCCCN1Cc1ccc(OCc2cccc(-c3ccccc3)c2C)c(C)c1 (configuration not stated) | > 20000 | > 20000 | > 20 | > 20 |  |  |  |  |  |  | 
COc1cc(OCc2cccc(-c3ccccc3)c2C)ccc1CNCCCOc1cc2c(Nc3ccc(F)c(Cl)c3)ncnc2cc1OC | 960 | 3490 | 4.01 | 5.46 |  |  |  |  |  |  | 
COc1cc2ncnc(Nc3ccc(F)c(Cl)c3)c2cc1OC(=O)N1CCN(Cc2ccc(-c3cccc(-c4ccccc4)c3C)nc2OC)CC1 | > 20000 | > 20000 | > 20 | > 20 |  |  |  |  |  |  | 
COc1cc(OCc2cccc(-c3ccccc3)c2C)ccc1CNCCCCOc1cc2c(Nc3ccc(F)c(Cl)c3)ncnc2cc1OC | 800 | 1470 | 2.6 | 1.97 |  |  |  |  |  |  | 
COc1cc2ncnc(Nc3ccc(F)c(Cl)c3)c2cc1OCCNCc1c(OC)cc(OCc2cccc(-c3ccccc3)c2C)cc1OC | 2840 | 1960 | 3.33 | 3.22 |  |  |  |  |  |  | 
COc1cc2ncnc(Nc3ccc(F)c(Cl)c3)c2cc1OCCCNCc1ccc(-c2cccc(-c3ccccc3)c2C)nc1OC | 820 | 5120 | 1.08 | 2.63 |  |  |  |  |  |  | 

More lines, main results first:

IC50 [1] [nM] | IC50 [2] [nM] | IC50 [3] [µM] | IC50 [4] [µM] | Compound | Activity [5] [%] | Activity [6] [%] | Activity [7] [%] | IC50 [8] [nM] | Activity [9] [%] | Activity [10] [%] | Activity [11] [%]
> 20000 | > 20000 | > 20 | > 20 | COc1cc2ncnc(Nc3ccc(F)c(Cl)c3)c2cc1OCCCCCCNC(=O)CCN(C)Cc1ccc(-c2cccc(-c3ccccc3)c2C)nc1OC |  |  |  |  |  |  | 
440 | 1040 | 1.35 | 2.24 | COc1cc2ncnc(Nc3ccc(F)c(Cl)c3)c2cc1OCCCCCNCc1c(OC)cc(OCc2cccc(-c3ccccc3)c2C)cc1OC |  |  |  |  |  |  | 
> 20000 | > 20000 | > 20 | > 20 | COc1cc2ncnc(Nc3ccc(F)c(Cl)c3)c2cc1OCCCCCCNC(=O)C1CCCCN1Cc1c(OC)cc(OCc2cccc(-c3ccccc3)c2C)cc1OC (configuration not stated) |  |  |  |  |  |  | 
360 | 1330 | 0.86 | 1.79 | COc1cc2ncnc(Nc3ccc(F)c(Cl)c3)c2cc1OCCCCNCc1c(OC)cc(OCc2cccc(-c3ccccc3)c2C)cc1OC |  |  |  |  |  |  | 
> 20000 | > 20000 | > 20 | > 20 | COc1cc2ncnc(Nc3ccc(F)c(Cl)c3)c2cc1OCCCCCNC(=O)C1CCCCN1Cc1ccc(-c2cccc(-c3ccccc3)c2C)nc1OC (configuration not stated) |  |  |  |  |  |  | 
730 | 1380 | 0.89 | 2.25 | COc1cc2ncnc(Nc3ccc(F)c(Cl)c3)c2cc1OCCCCNCc1ccc(OCc2cccc(-c3ccccc3)c2C)c(C)c1 |  |  |  |  |  |  | 
> 20000 | > 20000 | > 20 | > 20 | COc1cc2ncnc(Nc3ccc(F)c(Cl)c3)c2cc1OCCCCCCCCNC(=O)CN(C)Cc1c(OC)cc(OCc2cccc(-c3ccccc3)c2C)cc1OC |  |  |  |  |  |  | 
1390 | 1470 | 1.06 | 2.39 | COc1cc2ncnc(Nc3ccc(F)c(Cl)c3)c2cc1OCCCNCc1c(OC)cc(OCc2cccc(-c3ccccc3)c2C)cc1OC |  |  |  |  |  |  | 
> 20000 | > 20000 | > 20 | > 20 | COc1cc2ncnc(Nc3ccc(F)c(Cl)c3)c2cc1OCCCCCNC(=O)C1CCCCN1Cc1c(OC)cc(OCc2cccc(-c3ccccc3)c2C)cc1OC (configuration not stated) |  |  |  |  |  |  | 
540 | 1550 | 2.85 | 2.76 | COc1cc2ncnc(Nc3ccc(F)c(Cl)c3)c2cc1OCCCCCCNCc1c(OC)cc(OCc2cccc(-c3ccccc3)c2C)cc1OC |  |  |  |  |  |  | 
290 | 1290 | 0.84 | 1.24 | COc1cc(OCc2cccc(-c3ccccc3)c2C)ccc1CNCCCCOc1cc2c(Nc3cccc(Cl)c3F)ncnc2cc1OC |  |  |  |  |  |  | 
